Laboratory results published in PubChem BioAssay (NCI).
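Five compound concentrations were applied to cells in 96-well plates for 48 hours; endpoints were derived by simple linear interpolation of the resulting dose-response curve. GI50 marks 50% less growth. Definition used: TGI = concentration required for complete inhibition of growth.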

Legend:
Assay in all cases: NCI tumour cell line growth inhibition, 48 h
[1] = test system: NCI-H23 lung
[2] = test system: RPMI-8226 leukemia
[3] = test system: UO-31 renal
[4] = test system: HOP-92 NSCLC
[5] = test system: HCC-2998 colon
[6] = test system: M14 melanoma
[7] = test system: SK-MEL-2 melanoma
[8] = test system: ACHN renal
[9] = test system: MDA-MB-231 breast
[10] = test system: TK-10 renal
[11] = test system: NCI-H460 lung
[12] = test system: MOLT-4 leukemia
[13] = test system: LOX IMVI melanoma
[14] = test system: K-562 leukemia
[15] = test system: COLO 205 colon
[16] = test system: SNB-19 CNS
[17] = test system: SK-MEL-28 melanoma
[18] = test system: A498 renal
[19] = test system: KM12 colon
[20] = test system: HT29 colon
[21] = test system: OVCAR-8 ovarian
[22] = test system: NCI-H226 lung
[23] = test system: MALME-3M melanoma
[24] = test system: SF-268 CNS
[25] = test system: HOP-62 NSCLC
[26] = test system: SNB-75 CNS
[27] = test system: U251 CNS
[28] = test system: HL-60(TB) leukemia
[29] = test system: UACC-62 melanoma
[30] = test system: UACC-257 melanoma
[31] = test system: HS 578T breast
[32] = test system: OVCAR-3 ovarian
[33] = test system: CAKI-1 renal
[34] = test system: SR leukemia
[35] = test system: SK-OV-3 ovarian
[36] = test system: SK-MEL-5 melanoma
[37] = test system: SN12C renal
[38] = test system: PC-3 prostate
[39] = test system: SW-620 colon
[40] = test system: CCRF-CEM leukemia
[41] = test system: MDA-MB-435
[42] = test system: DU-145 prostate
[43] = test system: A549 NSCLC
[44] = test system: NCI-H522 lung
[45] = test system: T-47D breast
[46] = test system: RXF 393 renal
[47] = test system: 786-0 renal
[48] = test system: IGROV1 ovarian
[49] = test system: OVCAR-5 ovarian
[50] = test system: HCT-15 colon
[51] = test system: MCF7 breast
[52] = test system: BT-549 breast
[53] = test system: SF-295 CNS
[54] = test system: HCT-116 colon
[55] = test system: OVCAR-4 ovarian
[56] = test system: SF-539 CNS
[57] = test system: NCI/ADR-RES ovarian

O=C(Nc1cccc(-c2cccc(F)c2)c1)C1CCN(Cc2cccc3cccnc23)CC1
GI50 [1]: 3160 nM | TGI [1]: 13000 nM | GI50 [2]: 1950 nM | TGI [2]: 4490 nM | GI50 [3]: 1730 nM | TGI [3]: 4110 nM | GI50 [4]: 2030 nM | TGI [4]: 7220 nM | GI50 [5]: 1770 nM | TGI [5]: 3290 nM | GI50 [6]: 1750 nM | TGI [6]: 3300 nM | GI50 [7]: 2030 nM | TGI [7]: 4290 nM | GI50 [8]: 2280 nM | TGI [8]: 5670 nM | GI50 [9]: 1900 nM | TGI [9]: 3990 nM | GI50 [10]: 4300 nM | TGI [10]: 16700 nM | GI50 [11]: 1920 nM | TGI [11]: 3770 nM | GI50 [12]: 1660 nM | TGI [12]: 4770 nM | GI50 [13]: 1590 nM | TGI [13]: 3120 nM | GI50 [14]: 1520 nM | TGI [14]: 3870 nM | GI50 [15]: 1620 nM | TGI [15]: 3290 nM | GI50 [16]: 2000 nM | TGI [16]: 4830 nM | GI50 [17]: 1820 nM | TGI [17]: 3570 nM | GI50 [18]: 2060 nM | TGI [18]: 7090 nM | GI50 [19]: 3160 nM | TGI [19]: 10300 nM | GI50 [20]: 1510 nM | TGI [20]: 3170 nM | GI50 [21]: 3530 nM | TGI [21]: 13800 nM | GI50 [22]: 3150 nM | TGI [22]: 17200 nM | GI50 [23]: 1650 nM | TGI [23]: 3280 nM | GI50 [24]: 4050 nM | TGI [24]: 16100 nM | GI50 [25]: 3780 nM | TGI [25]: 15700 nM | GI50 [26]: 2400 nM | TGI [26]: 11700 nM | GI50 [27]: 1850 nM | TGI [27]: 3730 nM | GI50 [28]: 1940 nM | TGI [28]: 4200 nM | GI50 [29]: 1730 nM | TGI [29]: 3280 nM | GI50 [30]: 1830 nM | TGI [30]: 3750 nM | GI50 [31]: 1910 nM | TGI [31]: 4550 nM | GI50 [32]: 3510 nM | TGI [32]: 13200 nM | GI50 [33]: 1960 nM | TGI [33]: 4070 nM | GI50 [34]: 1660 nM | TGI [34]: 4460 nM | GI50 [35]: 4670 nM | TGI [35]: 16900 nM | GI50 [36]: 1640 nM | TGI [36]: 3060 nM | GI50 [37]: 1970 nM | TGI [37]: 4830 nM | GI50 [38]: 2210 nM | TGI [38]: 7090 nM | GI50 [39]: 1710 nM | TGI [39]: 3570 nM | GI50 [40]: 2670 nM | TGI [40]: 11200 nM | GI50 [41]: 1690 nM | TGI [41]: 3190 nM | GI50 [42]: 4360 nM | TGI [42]: 15600 nM | GI50 [43]: 3470 nM | TGI [43]: 13000 nM | GI50 [44]: 2160 nM | TGI [44]: 5100 nM | GI50 [45]: 2000 nM | TGI [45]: 5830 nM | GI50 [46]: 1570 nM | TGI [46]: 3470 nM | GI50 [47]: 1580 nM | TGI [47]: 3020 nM | GI50 [48]: 2100 nM | TGI [48]: 4740 nM | GI50 [49]: 2930 nM | TGI [49]: 11800 nM | GI50 [50]: 1790 nM | TGI [50]: 5160 nM | GI50 [51]: 1800 nM | TGI [51]: 4160 nM | GI50 [52]: 1790 nM | TGI [52]: 3300 nM | GI50 [53]: 1800 nM | TGI [53]: 3600 nM | GI50 [54]: 1710 nM | TGI [54]: 3080 nM | GI50 [55]: 3570 nM | TGI [55]: 14100 nM | GI50 [56]: 1800 nM | TGI [56]: 3560 nM | GI50 [57]: 2760 nM | TGI [57]: 10200 nM

FC(F)(F)c1cccc(Nc2nc3ccccc3nc2Nc2cccc(C(F)(F)F)c2)c1
GI50 [1]: 1720 nM | TGI [1]: 6310 nM | GI50 [2]: 797 nM | TGI [2]: 3950 nM | GI50 [3]: 1980 nM | TGI [3]: 11000 nM | GI50 [4]: 1360 nM | TGI [4]: 4670 nM | GI50 [5]: 2930 nM | TGI [5]: 7450 nM | GI50 [6]: 972 nM | TGI [6]: 3150 nM | GI50 [8]: 415 nM | TGI [8]: 2230 nM | GI50 [9]: 993 nM | TGI [9]: 2730 nM | GI50 [10]: 1470 nM | TGI [10]: 3800 nM | GI50 [11]: 457 nM | TGI [11]: 10100 nM | GI50 [12]: 1510 nM | TGI [12]: 4340 nM | GI50 [13]: 1500 nM | TGI [13]: 3070 nM | GI50 [14]: 1280 nM | TGI [14]: 5610 nM | GI50 [15]: 682 nM | TGI [15]: 2180 nM | GI50 [16]: 732 nM | TGI [16]: 15400 nM | GI50 [17]: 1710 nM | TGI [17]: 4730 nM | GI50 [18]: 663 nM | TGI [18]: 3990 nM | GI50 [19]: 1990 nM | TGI [19]: 4950 nM | GI50 [20]: 391 nM | TGI [20]: 2030 nM | GI50 [21]: 745 nM | TGI [21]: 5570 nM | GI50 [22]: 1210 nM | TGI [22]: 2980 nM | GI50 [23]: 2130 nM | TGI [23]: 6330 nM | GI50 [24]: 1290 nM | TGI [24]: 13000 nM | GI50 [25]: 762 nM | TGI [25]: 2170 nM | GI50 [26]: 1150 nM | TGI [26]: 6710 nM | GI50 [27]: 427 nM | TGI [27]: 1910 nM | GI50 [28]: 1860 nM | TGI [28]: 4770 nM | GI50 [29]: 1560 nM | TGI [29]: 5470 nM | GI50 [30]: 2020 nM | TGI [30]: 5540 nM | GI50 [31]: 2670 nM | TGI [31]: 7880 nM | GI50 [32]: 444 nM | TGI [32]: 4300 nM | GI50 [33]: 1020 nM | TGI [33]: 8780 nM | GI50 [34]: 1110 nM | TGI [34]: 3360 nM | GI50 [35]: 437 nM | TGI [35]: 1580 nM | GI50 [36]: 481 nM | TGI [36]: 1700 nM | GI50 [37]: 442 nM | TGI [37]: 2850 nM | GI50 [38]: 495 nM | TGI [38]: 7610 nM | GI50 [39]: 1710 nM | TGI [39]: 4010 nM | GI50 [40]: 710 nM | TGI [40]: 3840 nM | GI50 [41]: 1030 nM | TGI [41]: 2880 nM | GI50 [42]: 732 nM | TGI [42]: 13000 nM | GI50 [43]: 368 nM | TGI [43]: 2810 nM | GI50 [44]: 335 nM | TGI [44]: 1630 nM | GI50 [45]: 1410 nM | TGI [45]: 4730 nM | GI50 [46]: 882 nM | TGI [46]: 2340 nM | GI50 [47]: 1810 nM | TGI [47]: 3910 nM | GI50 [48]: 3200 nM | TGI [48]: 16800 nM | GI50 [49]: 454 nM | TGI [49]: 3390 nM | GI50 [50]: 515 nM | TGI [50]: 2050 nM | GI50 [51]: 2040 nM | TGI [51]: 9630 nM | GI50 [52]: 2710 nM | TGI [52]: 7600 nM | GI50 [53]: 1920 nM | TGI [53]: 5410 nM | GI50 [54]: 361 nM | TGI [54]: 1520 nM | GI50 [55]: 2930 nM | TGI [55]: 14600 nM | GI50 [56]: 959 nM | TGI [56]: 3120 nM | GI50 [57]: 1980 nM | TGI [57]: 11400 nM
